Results as given in patent US20230241229A1, “A SAPOGENIN POLYETHYLENE GLYCOL ESTER COMPLEX OF FORMULA-I, A COMPOSITION, PROCESS OF PREPARATION, AND APPLICATIONS THEREOF” (PHYTOSOL INDIA PRIVATE LIMITED, priority 2020, published 2023).

Experiment: Solubility of the compositions by adding water
Type: physicochemical
Settings: component weight 100 mg
Experimental: Solubility of the Compositions I, II and III are determined by adding water to the composition and control curcumin (without the Diosgenin polyethylene glycol succinate).

Water in ml require to solubilize: >1000 mL
SMILES: COc1cc(/C=C/C(=O)CC(=O)/C=C/c2ccc(O)c(OC)c2)ccc1O [Control, Curcumin]
